Reference: US20240398737A1, “FUNCTIONALIZED LONG-CHAIN HYDROCARBON MONO- AND DI-CARBOXYLIC ACIDS AND DERIVATIVES THEREOF, AND THEIR USE FOR THE PREVENTION OR TREATMENT OF DISEASE” (Espervita Therapeutics, Inc., priority 2021, published 2024)
Values joined by “and” are separate entries in the source; they are usually repeats but may differ in a detail not shown here. Equal entries are not always repeated.

What was measured:
Type in all cases: biochemical
LIMK1 = LIMK1 (Homo sapiens (Human), UniProt P53667); assay: Wild type kinase screen: LIMK1; conditions: compound at 10 μM, 10 μM ATP, Data 1 and Data 2 duplicates
MAPKAPK2 = MAPKAPK2 (Homo sapiens (Human), UniProt P49137); assay: Wild type kinase screen: MAPKAPK2; conditions: compound at 10 μM, 10 μM ATP, Data 1 and Data 2 duplicates
Sequence of MAPKAPK2 (P49137 whole entry, species assumed): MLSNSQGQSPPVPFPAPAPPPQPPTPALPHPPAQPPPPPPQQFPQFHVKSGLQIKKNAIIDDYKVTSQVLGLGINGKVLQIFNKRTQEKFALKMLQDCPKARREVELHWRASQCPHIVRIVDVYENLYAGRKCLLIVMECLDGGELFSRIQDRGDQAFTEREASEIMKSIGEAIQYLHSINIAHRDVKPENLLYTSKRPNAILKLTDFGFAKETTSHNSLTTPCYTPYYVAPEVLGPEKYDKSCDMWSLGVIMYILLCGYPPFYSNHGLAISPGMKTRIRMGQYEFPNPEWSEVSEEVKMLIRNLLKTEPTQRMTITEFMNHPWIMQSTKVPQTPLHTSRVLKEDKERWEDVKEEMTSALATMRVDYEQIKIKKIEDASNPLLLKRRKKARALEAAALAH

DDR2 = DDR2 (Homo sapiens (Human), UniProt Q16832); assay: Wild type kinase screen: DDR2; conditions: compound at 10 μM, 10 μM ATP, Data 1 and Data 2 duplicates
Sequence of DDR2 (Q16832 22-855, species assumed): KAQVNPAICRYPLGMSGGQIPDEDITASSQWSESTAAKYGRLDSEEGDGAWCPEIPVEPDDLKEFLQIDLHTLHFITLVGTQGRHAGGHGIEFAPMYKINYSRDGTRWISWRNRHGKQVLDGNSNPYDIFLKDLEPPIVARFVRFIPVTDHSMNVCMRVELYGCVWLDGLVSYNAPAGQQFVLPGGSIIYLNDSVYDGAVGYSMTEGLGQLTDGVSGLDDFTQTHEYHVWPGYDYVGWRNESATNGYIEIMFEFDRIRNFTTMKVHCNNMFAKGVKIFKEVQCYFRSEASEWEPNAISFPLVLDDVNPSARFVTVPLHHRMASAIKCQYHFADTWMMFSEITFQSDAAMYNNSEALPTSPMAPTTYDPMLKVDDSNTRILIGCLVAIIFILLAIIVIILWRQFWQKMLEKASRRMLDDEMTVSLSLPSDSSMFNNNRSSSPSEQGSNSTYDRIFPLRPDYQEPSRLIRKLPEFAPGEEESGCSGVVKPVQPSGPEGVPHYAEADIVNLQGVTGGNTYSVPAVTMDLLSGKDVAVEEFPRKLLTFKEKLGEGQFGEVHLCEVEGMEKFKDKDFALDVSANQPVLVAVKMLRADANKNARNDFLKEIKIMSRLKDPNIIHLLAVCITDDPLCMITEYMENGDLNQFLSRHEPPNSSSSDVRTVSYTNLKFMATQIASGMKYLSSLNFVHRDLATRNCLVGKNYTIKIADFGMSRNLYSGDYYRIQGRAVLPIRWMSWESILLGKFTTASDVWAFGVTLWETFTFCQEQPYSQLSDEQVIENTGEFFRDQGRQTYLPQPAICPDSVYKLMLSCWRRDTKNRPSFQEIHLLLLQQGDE

RIPK4 = RIPK4 (Homo sapiens (Human), UniProt P57078); assay: Wild type kinase screen: RIPK4; conditions: compound at 10 μM, 10 μM ATP, Data 1 and Data 2 duplicates
Aurora B = Aurora B (Homo sapiens (Human), UniProt Q96GD4); assay: Wild type kinase screen: Aurora B; conditions: compound at 10 μM, 10 μM ATP, Data 1 and Data 2 duplicates
Sequence of Aurora B (Q96GD4 whole entry): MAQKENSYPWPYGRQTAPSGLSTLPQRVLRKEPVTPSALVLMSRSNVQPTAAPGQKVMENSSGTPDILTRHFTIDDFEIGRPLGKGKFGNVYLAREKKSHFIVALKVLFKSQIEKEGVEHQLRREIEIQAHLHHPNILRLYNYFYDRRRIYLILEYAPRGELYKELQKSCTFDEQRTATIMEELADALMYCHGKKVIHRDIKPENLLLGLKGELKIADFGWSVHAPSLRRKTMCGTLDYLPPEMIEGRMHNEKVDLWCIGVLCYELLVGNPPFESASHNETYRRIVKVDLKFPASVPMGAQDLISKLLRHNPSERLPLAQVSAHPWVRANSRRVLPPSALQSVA

PIM3 = PIM3 (Homo sapiens (Human), UniProt Q86V86); assay: Wild type kinase screen: PIM3; conditions: compound at 10 μM, 10 μM ATP, Data 1 and Data 2 duplicates
human ACLY = human ACLY (Homo sapiens (Human), UniProt P53396); assay: ATP-citrate lyase (ACLY) enzymatic assay (ADP-Glo); conditions: recombinant human ACLY; 10 concentrations from 300 μM; Runs 1-3; read-out: Compound IC50 (M) ACLY
Experimental: ATP citrate lyase was obtained from Sino Biological Inc. Cat #11769-H07B, Lot #LC08DE1701. It was prepared from a DNA sequence encoding the human ACLY (P53396) (Met 1-Met 1101) expressed in Baculovirus-Insect Cells, with a polyhistidine tag at the N-terminus. The recombinant human ACLY consists of 1120 amino acids and has a calculated molecular mass of 123 kDa. It migrates as an approximately 110 kDa band in SDS-PAGE under reducing conditions. The enzyme came as a lyophilized powder in sterile 20 mM Tris, 500 mM NaCl, pH 8.0, 10% glycine. Normally 5%-8% trehalose and mannitol are added as protectants before lyophilization. The recombinant human ACLY from Sino Biological was formulated in 45 mM Tris-HCl, pH 8.0, 124 mM NaCl, 2.4 mM KCl, 18 mM glutathione, 10% glycerol, and 3 mM DTT.
To detect ADP produced from ACL assay, the ADP-Glo™ assay format from Promega, Madison, WI, was used, to detect the conversion of ATP to ADP. […] This assay is performed in two steps: i) after the ACL-mediated enzymatic reaction that utilizes ATP and produces ADP, ADP-Glo™ Reagent is added to terminate the kinase reaction and deplete the remaining ATP, and ii) the Kinase Detection Reagent is added to convert ADP to ATP and allow the newly synthesized ATP to be measured using a luciferase/luciferin reaction. The light generated, measured in a luminometer, correlates to the amount of ADP generated in the ACL assay, which is indicative of ACL activity.
Data represent nM or μM ADP produced, % Activity (relative to no inhibitor controls), and curve fits were performed by GraphPad Prism software. The IC50 concentration-response curves were generated for ADPGlo™ using recombinant human ACL from Sino Biologicals Inc.

NEK2 = NEK2 (Homo sapiens (Human), UniProt P51955); assay: Wild type kinase screen: NEK2; conditions: compound at 10 μM, 10 μM ATP, Data 1 and Data 2 duplicates
Sequence of NEK2 (P51955 whole entry, species assumed): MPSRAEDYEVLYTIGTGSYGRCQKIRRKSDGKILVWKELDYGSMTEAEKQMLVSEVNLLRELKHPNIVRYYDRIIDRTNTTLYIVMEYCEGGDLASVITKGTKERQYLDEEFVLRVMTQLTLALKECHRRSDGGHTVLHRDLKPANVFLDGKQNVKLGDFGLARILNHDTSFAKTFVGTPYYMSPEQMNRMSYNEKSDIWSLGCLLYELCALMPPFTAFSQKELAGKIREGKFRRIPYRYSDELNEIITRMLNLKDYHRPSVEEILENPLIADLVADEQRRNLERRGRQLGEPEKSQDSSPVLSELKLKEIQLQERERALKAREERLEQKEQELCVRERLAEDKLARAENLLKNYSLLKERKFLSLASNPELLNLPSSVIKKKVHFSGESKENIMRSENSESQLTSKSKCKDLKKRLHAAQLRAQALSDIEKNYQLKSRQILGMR

c-Kit = c-Kit (Homo sapiens (Human), UniProt P10721); assay: Wild type kinase screen: c-Kit; conditions: compound at 10 μM, 10 μM ATP, Data 1 and Data 2 duplicates
FLT1/VEGFR1 = FLT1/VEGFR1 (Homo sapiens (Human), UniProt P17948); assay: Wild type kinase screen: FLT1/VEGFR1; conditions: compound at 10 μM, 10 μM ATP, Data 1 and Data 2 duplicates
AURORA C = AURORA C (Homo sapiens (Human), UniProt Q9UQB9); assay: Wild type kinase screen: AURORA C; conditions: compound at 10 μM, 10 μM ATP, Data 1 and Data 2 duplicates
TNIK = TNIK (Homo sapiens (Human), UniProt Q9UKE5); assay: Wild type kinase screen: TNIK; conditions: compound at 10 μM, 10 μM ATP, Data 1 and Data 2 duplicates
MLCK/MYLK = MLCK/MYLK (Homo sapiens (Human), UniProt Q15746); assay: Wild type kinase screen: MLCK/MYLK; conditions: compound at 10 μM, 10 μM ATP, Data 1 and Data 2 duplicates
CAMK2g = CAMK2g (Homo sapiens (Human), UniProt Q13555); assay: Wild type kinase screen: CAMK2g; conditions: compound at 10 μM, 10 μM ATP, Data 1 and Data 2 duplicates
Human ACC2 = Human ACC2 (Homo sapiens (Human), UniProt O00763); assay: ACC2 enzymatic assay (ADP-Glo); conditions: recombinant human ACC2 1 nM; 10 concentrations from 300 μM; Runs 1-3; read-out: Compound IC50 (M) ACC2
Sequence of Human ACC2 (O00763 whole entry): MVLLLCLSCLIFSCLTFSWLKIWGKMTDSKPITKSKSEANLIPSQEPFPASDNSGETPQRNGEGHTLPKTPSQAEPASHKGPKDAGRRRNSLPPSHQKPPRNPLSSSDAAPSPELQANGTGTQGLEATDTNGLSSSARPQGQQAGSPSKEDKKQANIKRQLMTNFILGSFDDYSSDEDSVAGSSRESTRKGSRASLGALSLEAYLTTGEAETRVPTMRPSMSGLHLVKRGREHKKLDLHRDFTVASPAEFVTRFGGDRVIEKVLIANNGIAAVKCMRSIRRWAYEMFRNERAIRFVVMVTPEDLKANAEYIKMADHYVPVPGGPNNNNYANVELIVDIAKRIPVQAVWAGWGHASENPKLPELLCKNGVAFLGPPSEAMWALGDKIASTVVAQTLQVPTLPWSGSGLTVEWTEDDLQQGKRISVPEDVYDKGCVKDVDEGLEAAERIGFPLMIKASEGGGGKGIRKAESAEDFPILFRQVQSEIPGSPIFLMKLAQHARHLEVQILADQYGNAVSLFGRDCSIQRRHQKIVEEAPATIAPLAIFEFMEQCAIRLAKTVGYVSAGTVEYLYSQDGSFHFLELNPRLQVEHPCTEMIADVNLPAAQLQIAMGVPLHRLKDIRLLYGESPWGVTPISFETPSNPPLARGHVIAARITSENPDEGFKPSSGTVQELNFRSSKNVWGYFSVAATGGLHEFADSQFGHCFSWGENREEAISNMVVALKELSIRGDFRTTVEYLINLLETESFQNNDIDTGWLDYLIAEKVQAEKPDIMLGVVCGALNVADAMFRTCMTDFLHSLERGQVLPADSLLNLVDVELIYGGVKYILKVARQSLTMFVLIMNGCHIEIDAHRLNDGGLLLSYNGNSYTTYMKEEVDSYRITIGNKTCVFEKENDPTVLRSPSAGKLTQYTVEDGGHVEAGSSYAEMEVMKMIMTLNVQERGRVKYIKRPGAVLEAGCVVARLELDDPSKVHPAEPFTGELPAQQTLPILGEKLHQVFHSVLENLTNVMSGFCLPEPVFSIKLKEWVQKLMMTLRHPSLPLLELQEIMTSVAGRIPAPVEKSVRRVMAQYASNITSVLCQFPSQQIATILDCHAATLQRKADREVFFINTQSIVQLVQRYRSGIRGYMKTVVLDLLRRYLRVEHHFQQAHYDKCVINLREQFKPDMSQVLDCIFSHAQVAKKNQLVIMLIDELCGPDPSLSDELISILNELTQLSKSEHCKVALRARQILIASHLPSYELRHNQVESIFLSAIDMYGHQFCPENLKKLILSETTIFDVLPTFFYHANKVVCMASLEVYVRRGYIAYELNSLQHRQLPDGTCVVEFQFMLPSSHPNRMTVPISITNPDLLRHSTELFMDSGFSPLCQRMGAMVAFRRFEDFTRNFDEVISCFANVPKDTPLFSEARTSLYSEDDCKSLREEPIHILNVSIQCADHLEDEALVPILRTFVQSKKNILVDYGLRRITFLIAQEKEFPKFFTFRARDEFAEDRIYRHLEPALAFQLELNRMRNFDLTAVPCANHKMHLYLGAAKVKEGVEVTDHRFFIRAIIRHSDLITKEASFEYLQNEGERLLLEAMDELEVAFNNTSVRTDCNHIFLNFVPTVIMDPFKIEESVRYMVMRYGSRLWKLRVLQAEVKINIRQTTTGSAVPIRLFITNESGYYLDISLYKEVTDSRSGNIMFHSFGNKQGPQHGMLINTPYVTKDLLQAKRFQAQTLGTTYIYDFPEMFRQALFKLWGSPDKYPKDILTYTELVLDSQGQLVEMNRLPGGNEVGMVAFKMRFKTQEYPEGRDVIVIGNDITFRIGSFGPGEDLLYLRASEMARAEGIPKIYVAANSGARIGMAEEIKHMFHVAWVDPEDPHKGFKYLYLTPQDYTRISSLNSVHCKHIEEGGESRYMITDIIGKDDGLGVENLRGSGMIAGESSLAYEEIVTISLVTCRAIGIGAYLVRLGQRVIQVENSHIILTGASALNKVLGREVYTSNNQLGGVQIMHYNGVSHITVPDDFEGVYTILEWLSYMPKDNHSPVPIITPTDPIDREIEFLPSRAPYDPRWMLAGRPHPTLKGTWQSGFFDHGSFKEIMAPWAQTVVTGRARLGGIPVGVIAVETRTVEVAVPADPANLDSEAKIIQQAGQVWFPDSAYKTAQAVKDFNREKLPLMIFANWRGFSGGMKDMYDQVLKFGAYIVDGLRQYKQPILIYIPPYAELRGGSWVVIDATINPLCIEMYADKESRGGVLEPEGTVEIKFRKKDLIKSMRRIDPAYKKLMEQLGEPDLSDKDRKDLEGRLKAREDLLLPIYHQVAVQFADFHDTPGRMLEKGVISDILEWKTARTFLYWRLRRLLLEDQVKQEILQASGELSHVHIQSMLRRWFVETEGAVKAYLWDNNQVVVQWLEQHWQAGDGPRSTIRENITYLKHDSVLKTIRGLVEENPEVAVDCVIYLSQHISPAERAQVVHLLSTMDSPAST
Experimental: (§1) Human ACC1 (Cat #50202 Lot #120830) and ACC2 (Cat #50201 Lot #160217) were obtained from BPS Biosciences, San Diego, CA 92121. Human ACC1 had C-terminal flag and His-tags with a MW of 270 KDa after purification from Baculovirus infected Sf9 cell expression system and came as a solution in 50 mM Tris-HCl, pH 8.0, 500 mM NaCl, 10% glycerol, 1 mM DTT, 100 μg/ml FLAG peptide with 70% purity. The stock concentration was 0.25 mg/ml corresponding to 0.926 μM. Human ACC2 was also purified from Baculovirus infected Sf9 expression system. […] The stock concentration was 0.1 mg/ml corresponding to 0.36 μM. The assay buffer for measuring the activity of ACC contained: 30 mM HEPES (pH 7.4), 2 mM MgCl2, 0.01% Brij35, 2 mM DTT, 1% DMSO (solvent for compound). For ACC1 and ACC2 assays, the following concentrations of substrate and cofactors were used: 12 mM NaHCO3, 10 μM acetyl CoA, 10 μM ATP, and 2 mM K-citrate. The recombinant human enzyme was used at 5 nM for ACC1 and 1 nM for ACC2. In brief, enzyme alone in the above buffer without substrate was used for background. All test materials were dissolved in 100% DMSO using acoustic technology (Echo550). The prepared solution was preincubated for 15 min followed by the addition of 5 μL/well of ADP standard. ATP was then added to start the reaction. The assay contents were spun and briefly shaken followed by incubation at room temperature for 1 h. At the end of completion of assay, 5 μL of ADP-Glo was added to each well to stop the reaction. The contents were mixed, spun and incubated at room temperature for 40 min followed by the addition of 10 μL/well of ADP detection reagent. The contents were spun, mixed and covered with plastic to measure luminescence. […] The light generated, measured in a luminometer, correlates to the amount of ADP generated in the ACC assay, which is indicative of ACC activity.
(§2) The enzyme concentrations for ACC1 and ACC2 were 5 nM and 1 nM, respectively.
Data represent nM or μM ADP produced, % Activity (relative to no inhibitor controls), and curve fits were performed by GraphPad Prism software. The IC50 concentration-response curves were generated for both the ACC1 and ACC2 assays using recombinant human ACC.

Aurora A = Aurora A (Homo sapiens (Human), UniProt O14965); assay: Wild type kinase screen: Aurora A; conditions: compound at 10 μM, 10 μM ATP, Data 1 and Data 2 duplicates
ERK7/MAPK15 = ERK7/MAPK15 (Homo sapiens (Human), UniProt Q8TD08); assay: Wild type kinase screen: ERK7/MAPK15; conditions: compound at 10 μM, 10 μM ATP, Data 1 and Data 2 duplicates
MELK = MELK (Homo sapiens (Human), UniProt Q14680); assay: Wild type kinase screen: MELK; conditions: compound at 10 μM, 10 μM ATP, Data 1 and Data 2 duplicates
BMX/ETK = BMX/ETK (Homo sapiens (Human), UniProt P51813); assay: Wild type kinase screen: BMX/ETK; conditions: compound at 10 μM, 10 μM ATP, Data 1 and Data 2 duplicates
Human ACC1 = Human ACC1 (Homo sapiens (Human), UniProt Q13085); assay: ACC1 enzymatic assay (ADP-Glo); conditions: recombinant human ACC1 5 nM; 10 concentrations from 300 μM; Runs 1-3; read-out: Compound IC50 (M) ACC1
Experimental: as §1, §2
Data represent nM or μM ADP produced, % Activity (relative to no inhibitor controls), and curve fits were performed by GraphPad Prism software. […]

GSK3b = GSK3b (Homo sapiens (Human), UniProt P49841); assay: Wild type kinase screen: GSK3b; conditions: compound at 10 μM, 10 μM ATP, Data 1 and Data 2 duplicates

Compound: CC(C)(CCCCc1ccc(CCCCC(C)(C)C(=O)SCCNC(=O)CCNC(=O)[C@H](O)C(C)(C)COP(=O)(O)OP(=O)(O)OC[C@H]2O[C@@H](n3cnc4c(N)ncnc43)[C@H](O)[C@@H]2OP(=O)(O)O)cc1)C(=O)O [Compound I-1-CoA, 6-[4-(5-carboxy-5-methylhexyl)-phenyl]-2,2-dimethylhexanoic acid Coenzyme A ester]
- % Enzyme Activity (relative to DMSO controls) (LIMK1): 77.88% and 76.61%
- % Enzyme Activity (relative to DMSO controls) (MAPKAPK2): 85.04% and 84.66%
- % Enzyme Activity (relative to DMSO controls) (DDR2): 88.28% and 79.94%
- % Enzyme Activity (relative to DMSO controls) (RIPK4): 32.26% and 29.70%
- % Enzyme Activity (relative to DMSO controls) (Aurora B): 36.79% and 32.68%
- % Enzyme Activity (relative to DMSO controls) (PIM3): 73.92% and 70.32%
- IC50 (human ACLY): 3.34e-06 M and 2.28e-06 M and 2.5e-06 M
- % Enzyme Activity (relative to DMSO controls) (NEK2): 0.89% and 0.63%
- % Enzyme Activity (relative to DMSO controls) (c-Kit): 73.56% and 73.24%
- % Enzyme Activity (relative to DMSO controls) (FLT1/VEGFR1): 84.17% and 82.94%
- % Enzyme Activity (relative to DMSO controls) (AURORA C): 78.81% and 72.15%
- % Enzyme Activity (relative to DMSO controls) (TNIK): 39.22% and 36.50%
- % Enzyme Activity (relative to DMSO controls) (MLCK/MYLK): 2.06% and −0.71%
- % Enzyme Activity (relative to DMSO controls) (CAMK2g): 53.91% and 53.05%
- IC50 (Human ACC2): 9.41e-06 M and 7.72e-06 M and 9.06e-06 M
- % Enzyme Activity (relative to DMSO controls) (Aurora A): 12.44% and 12.42%
- % Enzyme Activity (relative to DMSO controls) (ERK7/MAPK15): 51.57% and 45.02%
- % Enzyme Activity (relative to DMSO controls) (MELK): 23.02% and 21.99%
- % Enzyme Activity (relative to DMSO controls) (BMX/ETK): 49.55% and 47.76%
- IC50 (Human ACC1): 1.63e-05 M and 1.33e-05 M and 1.25e-05 M
- % Enzyme Activity (relative to DMSO controls) (GSK3b): 63.29% and 62.44%

Compound: CC(C)(CCCCc1cccc(CCCCC(C)(C)C(=O)SCCNC(=O)CCNC(=O)[C@H](O)C(C)(C)COP(=O)(O)OP(=O)(O)OC[C@H]2O[C@@H](n3cnc4c(N)ncnc43)[C@H](O)[C@@H]2OP(=O)(O)O)c1)C(=O)O [Compound I-32-CoA, 6-[3-(5—Carboxy-5-methylhexyl)-phenyl]-2,2-dimethylhexanoic acid Coenzyme A Ester]
- % Enzyme Activity (relative to DMSO controls) (LIMK1): 47.31% and 45.01%
- % Enzyme Activity (relative to DMSO controls) (MAPKAPK2): 17.17% and 15.90%
- % Enzyme Activity (relative to DMSO controls) (DDR2): 29.98% and 25.40%
- % Enzyme Activity (relative to DMSO controls) (RIPK4): 33.02% and 32.84%
- % Enzyme Activity (relative to DMSO controls) (Aurora B): 33.27% and 30.67%
- % Enzyme Activity (relative to DMSO controls) (PIM3): 51.10% and 43.67%
- IC50 (human ACLY): 9.88e-07 M and 1.22e-06 M and 1.44e-06 M
- % Enzyme Activity (relative to DMSO controls) (NEK2): 35.98% and 34.99%
- % Enzyme Activity (relative to DMSO controls) (c-Kit): 49.53% and 49.21%
- % Enzyme Activity (relative to DMSO controls) (FLT1/VEGFR1): 52.06% and 51.61%
- % Enzyme Activity (relative to DMSO controls) (AURORA C): 48.46% and 46.83%
- % Enzyme Activity (relative to DMSO controls) (TNIK): 70.02% and 66.13%
- % Enzyme Activity (relative to DMSO controls) (MLCK/MYLK): 3.21% and 1.59%
- % Enzyme Activity (relative to DMSO controls) (CAMK2g): 35.05% and 34.20%
- IC50 (Human ACC2): 5.02e-06 M and 4.22e-06 M and 3.33e-06 M
- % Enzyme Activity (relative to DMSO controls) (Aurora A): 13.04% and 11.95%
- % Enzyme Activity (relative to DMSO controls) (ERK7/MAPK15): 88.39% and 80.61%
- % Enzyme Activity (relative to DMSO controls) (MELK): 28.56% and 27.35%
- % Enzyme Activity (relative to DMSO controls) (BMX/ETK): 49.54% and 43.87%
- IC50 (Human ACC1): 5.07e-06 M and 5e-06 M and 6.03e-06 M
- % Enzyme Activity (relative to DMSO controls) (GSK3b): 23.69% and 22.51%
